These results are taken from US20260184707A1, “PHARMACEUTICAL COMPOUNDS FOR THE TREATMENT OF COMPLEMENT MEDIATED DISORDERS” (ALEXION PHARMACEUTICALS, INC., priority 2022, published 2026).

As a reminder, the IC50 is the concentration that gives 50% inhibition.

Each structure is given as a SMILES string.

For this assay, the target named is T1, Human complement C1s enzyme (Homo sapiens, UniProt P09871).
T1 construct: purified from human serum, Complement Technology, Inc; purchased Complement Technology, Inc; host or cells: human serum (plasma-derived native protein)
T1 sequence (P09871 438-688 limits assumed): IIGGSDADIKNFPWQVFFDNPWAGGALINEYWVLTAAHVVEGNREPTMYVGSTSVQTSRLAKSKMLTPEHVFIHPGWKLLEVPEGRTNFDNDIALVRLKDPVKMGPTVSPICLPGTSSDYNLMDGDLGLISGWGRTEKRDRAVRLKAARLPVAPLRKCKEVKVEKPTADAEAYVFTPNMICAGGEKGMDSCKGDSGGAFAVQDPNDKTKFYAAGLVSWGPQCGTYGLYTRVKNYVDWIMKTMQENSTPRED
T1 sequence (P09871 16-437 partner limits assumed): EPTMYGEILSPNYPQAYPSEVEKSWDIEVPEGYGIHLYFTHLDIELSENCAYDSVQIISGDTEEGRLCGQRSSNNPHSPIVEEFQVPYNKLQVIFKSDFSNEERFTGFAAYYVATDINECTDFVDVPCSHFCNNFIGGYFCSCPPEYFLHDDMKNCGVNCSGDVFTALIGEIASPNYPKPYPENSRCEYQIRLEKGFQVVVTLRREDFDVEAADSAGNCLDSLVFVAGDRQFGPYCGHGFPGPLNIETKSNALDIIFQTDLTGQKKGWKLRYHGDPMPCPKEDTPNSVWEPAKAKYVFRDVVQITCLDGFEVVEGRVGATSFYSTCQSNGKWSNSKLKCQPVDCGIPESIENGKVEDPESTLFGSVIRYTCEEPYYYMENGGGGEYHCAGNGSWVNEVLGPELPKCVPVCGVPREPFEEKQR
The experiment in a line: Human C1s enzyme assay. Type of assay: biochemical. The conditions noted are these: human complement C1s enzyme 1.16 nM, substrate Z-L-Lys-SBzl, A405; read-out: IC50 (Stars). Put shortly:
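Serum-purified human C1s (1.16 nM final) preincubated 5 min at room temperature with compound in 50 mM Tris, 1 M NaCl, pH 7.5. Z-L-Lys-SBzl and DTNB added at 100 μM each; A405 recorded every 30 s. IC50 from nonlinear regression of reaction rates versus compound concentration.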

`C[C@@H](Nc1cnc(N2CCCCC2)n(CC(=O)NCc2cc3cnccc3[nH]2)c1=O)c1coc(-c2ccccc2F)n1` [Compound 475, (R)—N-((1H-Pyrrolo[3,2-c]pyridine-2-yl)methyl)-2-(5-((1-(2-(2-fluorophenyl)oxazol-4-yl)ethyl)amino)-6-oxo-2-(piperidin-1-yl)pyrimidin-1(6H)-yl) acetamide]: the IC50 lay in the range of 0.1 to 1 µM. For `C[C@@H](Nc1cnc(C2CCCC2)n(CC(=O)NCc2cc3cnccc3[nH]2)c1=O)c1coc(-c2ccccc2)n1` [Compound 476, (R)-N-((1H-pyrrolo[3,2-c]pyridin-2-yl)methyl)-2-(2-cyclopentyl-6-oxo-5-((1-(2-phenyloxazol-4-yl)ethyl)-amino)pyrimidin-1(6H)-yl)-acetamide], the IC50 was in the range of 0.1 to 1 µM.

For `O=C(Cn1c(N2CCCCC2)cnc(NCc2cc(-c3ccccc3)ns2)c1=O)NCc1cc2cnccc2[nH]1` [Compound 477, N-((1H-pyrrolo[3,2-c]pyridin-2-yl)methyl)-2-(2-oxo-3-(((3-phenylisothiazol-5-yl)methyl)-amino)-6-(piperidin-1-yl)pyr-azin-1(2H)-yl)acetamide], the IC50 is less than 0.1 µM. For `O=C(Cn1c(N2CCCCC2)cnc(NCc2noc(-c3ccccc3)n2)c1=O)NCc1cc2cnccc2[nH]1` [Compound 478, N-((1H-pyrrolo[3,2-c]pyridin-2-yl)methyl)-2-(2-oxo-3-(((5-phenyl-1,2,4-oxadiazol-3-yl)-methyl)amino)-6-(piperidin-1-yl)pyrazin-1(2H)-yl)acetamide], the IC50 is less than 0.1 µM. As for `O=C(Cn1c(N2CCCCC2)cnc(NCc2cc(-c3ccccc3F)on2)c1=O)NCc1cc2cnccc2[nH]1` [Compound 479, N-((1H-pyrrolo[3,2-c]pyridin-2-yl)methyl)-2-(3-(((5-(2-fluorophenyl)isoxazol-3-yl)-methyl)amino)-2-oxo-6-(piper-idin-1-yl)pyrazin-1(2H)-yl)-acetamide], the IC50 is less than 0.1 µM. For `O=C(Cn1c(N2CCCCC2)cnc(NCc2noc3ccccc23)c1=O)NCc1cc2cnccc2[nH]1` [Compound 480, N-((1H-pyrrolo[3,2-c]pyridin-2-yl)methyl)-2-(3-((benzo[d]isoxazol-3-ylmethyl)amino)-2-oxo-6-(piperidin-1-yl)pyrazin-1(2H)-yl)acetamide], the IC50 was less than 0.1 µM. Regarding `C[C@@H](Nc1cnc(N2CCCC2)n(CC(=O)NCc2cc3cnccc3[nH]2)c1=O)c1coc(-c2ccccc2)n1` [Compound 481, (R)-N-((1H-pyrrolo[3,2-c]pyridin-2-yl)methyl)-2-(6-oxo-5-((1-(2-phenyloxazol-4-yl)-ethyl)amino)-2-(pyrrolidin-1-yl)pyrimidin-1(6H)-yl)acet-mide], the IC50 is 0.1 to 1 µM. Consider `COCC(=O)N1CCN(c2ncc(N[C@H](C)c3ccc4oc5ccccc5c4c3)c(=O)n2CC(=O)NCc2cc3cnccc3[nH]2)CC1` [Compound 482, (R)-N-((1H-pyrrolo[3,2-c]pyridin-2-yl)methyl)-2-(5-((1-(dibenzo[b,d]furan-2-yl)ethyl)-amino)-2-(4-(2-methoxyacet-yl)piperazin-1-yl)-6-oxopyr-imidin-1(6H)-yl)acetamide], for which the IC50 is less than 0.1 µM.

With `Cn1cc(-c2ncc(NCc3cc4ccccc4o3)c(=O)n2CC(=O)NCc2cc3cnccc3[nH]2)cn1` [Compound 483, N-((1H-pyrrolo[3,2-c]pyridin-2-yl)methyl)-2-(5-((benzo-furan-2-ylmethyl)amino)-2-(1-methyl-1H-pyrazol-4-yl)-6-oxopyrimidin-1(6H)-yl)-acetamide], the IC50 is less than 0.1 µM. `O=C(Cn1cncc(NCc2cc(-c3ccccc3)ns2)c1=O)NCc1cc2cnccc2[nH]1` [Compound 484, N-((1H-pyrrolo[3,2-c]pyridin-2-yl)methyl)-2-(6-oxo-5-(((3-phenylisothiazol-5-yl)methyl)-amino)pyrimidin-1(6H)-yl)-acetamide]: the IC50 is less than 0.1 µM. `O=C(Cn1cncc(NCc2nnc(-c3ccccc3)s2)c1=O)NCc1cc2cnccc2[nH]1` [Compound 485, N-((1H-pyrrolo[3,2-c]pyridin-2-yl)methyl)-2-(6-oxo-5-(((5-phenyl-1,3,4-thiadiazol-2-yl)-methyl)amino)pyrimidin-1(6H)-yl)acetamide]: the concentration for half-maximal inhibition (IC50) was less than 0.1 µM. `O=C(Cn1cncc(NCc2cc3ccccc3o2)c1=O)NCc1cc2cnccc2[nH]1` [Compound 486, N-((1H-pyrrolo[3,2-c]pyridin-2-yl)methyl)-2-(5-((benzofuran-2-ylmethyl)amino)-6-oxopyr-imidin-1(6H)-yl)acetamide]: the IC50 was less than 0.1 µM. With `C[C@@H](Nc1cnc(N2CCCCC2)n(CC(=O)NCc2cc3cnccc3[nH]2)c1=O)c1nc(-c2ccccc2)co1` [Compound 487, (R)—N-((1H-Pyrrolo[3,2-c]pyridine-2-yl)methyl)-2-(6-oxo-5-((1-(4-phenyloxazol-2-yl)ethyl)amino)-2-(piperidin-1-yl)pyrimidin-1(6H)-yl) acetamide], the IC50 was less than 0.1 µM. As to `C[C@@H](Nc1cnc(N2CCCCC2)n(CC(=O)NCc2cc3cnccc3[nH]2)c1=O)c1ncc(-c2ccccc2)o1` [Compound 488, (R)-N-((1H-pyrrolo[3,2-c]pyridin-2-yl)methyl)-2-(6-oxo-5-((1-(5-phenyloxazol-2-yl)-ethyl)amino)-2-(piperidin-1-yl)pyrimidin-1(6H)-yl)acet-amide], the IC50 is less than 0.1 µM. As to `O=C(CN1C(=O)[C@H](NCCCc2ccccc2)CC[C@H]1c1ccccc1)NCc1cc2cnccc2[nH]1` [Compound 490, N-((1H-pyrrolo[3,2-c]pyridin-2-yl)methyl)-2-((3R,6S)-2-oxo-6-phenyl-3-((3-phenylpropyl)-amino)piperidin-1-yl)acetamide], the IC50 was greater than 1 µM. With `C[C@@H](Nc1nnc(N2CCCCC2)n(CC(=O)NCc2cc3cnccc3[nH]2)c1=O)c1ccc2oc3ccccc3c2c1` [Compound 491, (R)-N-((1H-pyrrolo[3,2-c]pyridin-2-yl)methyl)-2-(6-((1-(dibenzo[b,d]furan-2-yl)ethyl)-amino)-5-oxo-3-(piperidin-1-yl)-1,2,4-triazin-4(5H)-yl)-acetamide], the IC50 was less than 0.1 µM. The same measure for `O=C(Cn1c(N2CCOCC2)cnc(NC(=O)c2coc(-c3ccccc3)n2)c1=O)NCc1cc2cnccc2[nH]1` [Compound 492, N-(4-(2-(((1H-Pyrrolo[3,2-c]pyridine-2-yl)methyl)amino)-2-oxoethyl)-5-morpholino-3-oxo-3,4-dihydropyrazin-2-yl)-2-phenyloxazole-4-carboxamide]: less than 0.1 µM; for `O=C(Cn1c(N2CCCCC2)cnc(N[C@H](CO)c2ccc3oc4ccccc4c3c2)c1=O)NCc1cc2cnccc2[nH]1` [Compound 493, (S)—N-((1H-Pyrrolo[3,2-c]pyridine-2-yl)methyl)-2-(3-((1-(dibenzo[b,d]furan-2-yl)-2-hydroxyethyl)amino)-2-oxo-6-(piperidin-1-yl)pyrazin-1(2H)-yl)acetamide]: greater than 1 µM; for `O=C(Cn1c(N2CCCCC2)cnc(N[C@H](CF)c2ccc3oc4ccccc4c3c2)c1=O)NCc1cc2cnccc2[nH]1` [Compound 494, (S)-N-((1H-pyrrolo[3,2-c]pyridin-2-yl)methyl)-2-(3-((1-(dibenzo[b,d]furan-2-yl)-2-fluoroethyl)amino)-2-oxo-6-(piperidin-1-yl)pyrazin-1(2H)-yl)acetamide]: greater than 1 µM.
